Experimental data from ChEMBL document CHEMBL1201862, “PubChem BioAssay data set” (2004).
Where a name gives a salt, the structure may show the parent alone. One block for each compound: values may come before it. The source made the active and inactive calls.

Tests used:
[1] = Luminescence-based cell-based high throughput dose response assay to identify activators of the DAF-12 from the parasite S. stercoralis (ssDAF-12).; format: functional
[2] = biological target: T1, Oxysterols receptor LXR-beta (Homo sapiens, UniProt P55055); assay: LXR agonists, Gal4 luciferase reporter, dose response, counter-screen for ssDAF-12 agonist project, cell-based, luminescence, HEK293, S. stercoralis campaign (AID 720737); format: functional; conditions: read-out: IC50 (the source's name)
T1 sequence (P55055 whole entry): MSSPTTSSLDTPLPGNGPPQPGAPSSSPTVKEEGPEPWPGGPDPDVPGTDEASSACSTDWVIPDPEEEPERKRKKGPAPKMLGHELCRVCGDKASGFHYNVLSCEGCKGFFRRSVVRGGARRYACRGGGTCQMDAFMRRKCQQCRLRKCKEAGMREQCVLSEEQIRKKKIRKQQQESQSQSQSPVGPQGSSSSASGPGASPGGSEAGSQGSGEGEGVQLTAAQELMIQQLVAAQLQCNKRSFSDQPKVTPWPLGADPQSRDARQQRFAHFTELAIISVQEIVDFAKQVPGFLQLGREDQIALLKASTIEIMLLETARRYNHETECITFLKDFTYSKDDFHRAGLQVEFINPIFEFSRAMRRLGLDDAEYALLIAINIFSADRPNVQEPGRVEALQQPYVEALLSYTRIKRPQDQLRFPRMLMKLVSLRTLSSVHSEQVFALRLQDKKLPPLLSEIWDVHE

[3] = biological target: T2, Heat shock factor protein 1 (Mus musculus, UniProt P38532); assay: decrease of HSF1-responsive luciferase luminescence – cell-based, NIH3T3, dose retest, confirmation (AID 2382); format: functional;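 further: NIH3T3 fibroblasts with HSF1-driven luciferase reporter stressed by proteasome inhibitor MG132; luminescence from HSF1-driven luciferase expression after 8 hours of MG132 stress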
T2 sequence (P38532 whole entry): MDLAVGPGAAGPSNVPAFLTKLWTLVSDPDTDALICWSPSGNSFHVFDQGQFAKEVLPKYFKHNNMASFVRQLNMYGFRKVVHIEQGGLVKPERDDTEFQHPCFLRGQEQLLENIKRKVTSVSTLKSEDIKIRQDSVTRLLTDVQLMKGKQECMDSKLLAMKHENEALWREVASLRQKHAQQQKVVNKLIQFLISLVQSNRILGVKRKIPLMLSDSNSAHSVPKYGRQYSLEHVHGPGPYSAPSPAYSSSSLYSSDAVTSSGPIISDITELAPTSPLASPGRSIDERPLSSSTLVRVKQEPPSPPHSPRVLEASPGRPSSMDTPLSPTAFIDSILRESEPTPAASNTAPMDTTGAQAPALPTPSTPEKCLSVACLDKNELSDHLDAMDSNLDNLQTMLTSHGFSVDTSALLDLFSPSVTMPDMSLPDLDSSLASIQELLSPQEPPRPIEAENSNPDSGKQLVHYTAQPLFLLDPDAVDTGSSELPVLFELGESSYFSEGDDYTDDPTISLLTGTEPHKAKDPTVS

Aminopeptidase N = biological target: T3, Aminopeptidase N (Plasmodium falciparum FcB1/Columbia, UniProt O96935); assay: malaria alanyl aminopeptidase activity blockers – biochemical, fluorogenic H-Leu-NHMec substrate, 1536-well (AID 1445); set-up: species or system Plasmodium falciparum 3D7, 3D7
T3 sequence (O96935 whole entry): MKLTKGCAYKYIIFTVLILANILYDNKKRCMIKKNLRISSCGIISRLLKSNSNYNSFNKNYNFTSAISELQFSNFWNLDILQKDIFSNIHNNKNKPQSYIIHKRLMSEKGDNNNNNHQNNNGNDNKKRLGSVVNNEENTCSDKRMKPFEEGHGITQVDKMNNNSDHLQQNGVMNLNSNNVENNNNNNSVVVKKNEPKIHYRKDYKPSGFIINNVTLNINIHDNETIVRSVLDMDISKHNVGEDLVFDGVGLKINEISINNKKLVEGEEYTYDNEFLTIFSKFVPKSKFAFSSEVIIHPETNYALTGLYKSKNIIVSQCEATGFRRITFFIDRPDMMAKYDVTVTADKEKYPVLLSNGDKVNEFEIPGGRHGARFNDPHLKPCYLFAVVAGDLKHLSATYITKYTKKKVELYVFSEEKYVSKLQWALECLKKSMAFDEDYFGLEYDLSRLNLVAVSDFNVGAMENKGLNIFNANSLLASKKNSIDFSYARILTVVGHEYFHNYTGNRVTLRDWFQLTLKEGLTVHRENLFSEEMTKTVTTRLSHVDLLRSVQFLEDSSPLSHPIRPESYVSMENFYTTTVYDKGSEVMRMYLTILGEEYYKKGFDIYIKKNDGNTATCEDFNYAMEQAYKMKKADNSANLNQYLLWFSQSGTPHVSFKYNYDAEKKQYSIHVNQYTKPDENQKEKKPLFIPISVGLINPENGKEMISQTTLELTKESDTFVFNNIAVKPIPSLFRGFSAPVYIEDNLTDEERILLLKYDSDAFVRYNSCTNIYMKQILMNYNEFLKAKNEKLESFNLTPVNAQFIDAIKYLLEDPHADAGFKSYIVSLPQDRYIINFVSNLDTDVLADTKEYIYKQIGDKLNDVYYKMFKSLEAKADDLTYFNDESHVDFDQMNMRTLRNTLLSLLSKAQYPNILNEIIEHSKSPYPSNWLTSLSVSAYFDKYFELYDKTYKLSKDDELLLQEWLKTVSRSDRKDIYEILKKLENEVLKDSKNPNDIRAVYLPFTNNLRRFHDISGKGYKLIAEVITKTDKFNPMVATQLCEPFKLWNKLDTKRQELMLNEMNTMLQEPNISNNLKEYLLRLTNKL

[4] = biological target: T2, Heat shock factor protein 1; assay: enhancement of HSF1-driven luciferase signal – cell-based, NIH3T3, luminescence, dose retest, confirmation (AID 435004); format: functional;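 further: stress induced by proteasome inhibitor MG132 added 30 min after compound; luciferase reporter driven by HSF1 response element in NIH3T3 cells; actives raise luminescence as potentiators of the MG132 stress response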
[5] = biological target: T1, Oxysterols receptor LXR-beta; format: functional, cell-based
[6] = biological target: Voltage-dependent T-type calcium channel subunit alpha-1H (Homo sapiens, UniProt O95180); format: functional;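 further: channel activity triggered by adding a high calcium stimulation buffer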
Sequence of Voltage-dependent T-type calcium channel subunit alpha-1H (O95180 whole entry): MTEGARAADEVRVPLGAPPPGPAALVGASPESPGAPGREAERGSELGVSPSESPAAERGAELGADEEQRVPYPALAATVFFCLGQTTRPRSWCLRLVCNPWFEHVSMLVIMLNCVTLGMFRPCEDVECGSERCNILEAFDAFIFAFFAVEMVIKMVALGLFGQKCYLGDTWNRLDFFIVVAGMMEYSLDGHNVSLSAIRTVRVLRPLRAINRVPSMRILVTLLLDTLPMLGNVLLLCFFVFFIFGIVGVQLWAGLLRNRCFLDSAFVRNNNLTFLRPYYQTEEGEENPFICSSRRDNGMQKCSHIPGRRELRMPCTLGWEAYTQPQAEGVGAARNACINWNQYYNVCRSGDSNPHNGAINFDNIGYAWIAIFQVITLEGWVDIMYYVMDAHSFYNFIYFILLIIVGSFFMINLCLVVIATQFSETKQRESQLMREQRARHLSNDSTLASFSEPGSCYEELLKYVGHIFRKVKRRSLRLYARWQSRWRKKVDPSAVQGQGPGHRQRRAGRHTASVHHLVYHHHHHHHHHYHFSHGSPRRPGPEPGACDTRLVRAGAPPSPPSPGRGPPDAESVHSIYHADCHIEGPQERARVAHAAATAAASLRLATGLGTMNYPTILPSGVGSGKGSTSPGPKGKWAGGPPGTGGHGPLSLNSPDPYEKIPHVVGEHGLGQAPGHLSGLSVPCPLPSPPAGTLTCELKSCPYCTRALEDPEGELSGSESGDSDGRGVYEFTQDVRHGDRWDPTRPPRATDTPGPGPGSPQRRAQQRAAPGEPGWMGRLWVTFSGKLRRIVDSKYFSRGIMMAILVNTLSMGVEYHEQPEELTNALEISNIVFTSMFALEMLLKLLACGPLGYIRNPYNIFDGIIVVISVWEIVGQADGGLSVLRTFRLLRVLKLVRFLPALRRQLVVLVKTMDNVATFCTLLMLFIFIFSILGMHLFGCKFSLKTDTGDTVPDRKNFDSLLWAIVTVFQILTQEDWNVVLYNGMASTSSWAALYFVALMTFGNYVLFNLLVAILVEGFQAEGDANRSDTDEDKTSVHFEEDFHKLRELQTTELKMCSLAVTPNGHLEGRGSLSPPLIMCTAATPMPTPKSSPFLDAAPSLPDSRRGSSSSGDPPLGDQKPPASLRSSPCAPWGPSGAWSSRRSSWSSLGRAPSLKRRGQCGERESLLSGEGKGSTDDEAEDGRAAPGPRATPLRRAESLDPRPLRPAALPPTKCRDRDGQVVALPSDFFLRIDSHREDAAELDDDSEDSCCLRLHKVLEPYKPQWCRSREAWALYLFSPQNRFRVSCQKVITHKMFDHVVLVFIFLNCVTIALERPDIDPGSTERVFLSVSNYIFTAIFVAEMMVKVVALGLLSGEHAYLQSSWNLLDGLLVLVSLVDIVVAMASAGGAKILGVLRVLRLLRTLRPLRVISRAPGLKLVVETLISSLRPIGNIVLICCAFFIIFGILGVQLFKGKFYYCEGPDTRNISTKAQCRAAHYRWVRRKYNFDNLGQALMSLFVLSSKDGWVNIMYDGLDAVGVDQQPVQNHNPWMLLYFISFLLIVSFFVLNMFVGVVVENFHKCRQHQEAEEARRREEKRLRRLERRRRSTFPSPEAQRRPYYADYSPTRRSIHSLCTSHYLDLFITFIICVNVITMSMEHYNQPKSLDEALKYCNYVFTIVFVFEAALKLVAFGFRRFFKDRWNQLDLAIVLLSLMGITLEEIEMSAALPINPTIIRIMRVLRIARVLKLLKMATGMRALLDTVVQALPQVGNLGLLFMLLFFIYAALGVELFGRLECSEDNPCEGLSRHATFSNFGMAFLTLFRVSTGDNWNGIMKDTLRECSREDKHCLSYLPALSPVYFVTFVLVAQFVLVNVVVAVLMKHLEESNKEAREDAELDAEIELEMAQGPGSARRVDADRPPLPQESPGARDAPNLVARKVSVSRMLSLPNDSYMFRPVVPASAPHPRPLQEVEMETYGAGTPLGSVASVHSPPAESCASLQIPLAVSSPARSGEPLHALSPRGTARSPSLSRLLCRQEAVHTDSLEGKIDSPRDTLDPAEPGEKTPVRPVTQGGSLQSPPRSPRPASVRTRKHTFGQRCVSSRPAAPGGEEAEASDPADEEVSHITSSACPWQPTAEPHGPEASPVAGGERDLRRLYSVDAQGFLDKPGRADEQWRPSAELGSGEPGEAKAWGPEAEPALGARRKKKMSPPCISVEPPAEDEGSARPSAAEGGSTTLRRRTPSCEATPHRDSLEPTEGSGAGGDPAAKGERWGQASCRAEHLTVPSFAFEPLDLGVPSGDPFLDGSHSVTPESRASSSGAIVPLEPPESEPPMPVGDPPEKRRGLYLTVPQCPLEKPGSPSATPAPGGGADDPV

[7] = Luminescence Cell-Based Dose Retest to Confirm Inhibitors of Cancer Stem Cells. [Related pubchem assays (depositor defined):AID2717, AID2721]; format: functional; conditions: Homo sapiens
Albumin = Albumin (Bos taurus, UniProt P02769); assay: Counterscreen for inhibitors of T-cell receptor (TCR)-CD3 interaction: Fluorescence-based biochemical high throughput dose response assay to identify inhibitors of T-cell receptor (TCR)-CD3 interaction using a TAMRA-labeled BSA probe.; format: functional
Sequence of Albumin (P02769 whole entry): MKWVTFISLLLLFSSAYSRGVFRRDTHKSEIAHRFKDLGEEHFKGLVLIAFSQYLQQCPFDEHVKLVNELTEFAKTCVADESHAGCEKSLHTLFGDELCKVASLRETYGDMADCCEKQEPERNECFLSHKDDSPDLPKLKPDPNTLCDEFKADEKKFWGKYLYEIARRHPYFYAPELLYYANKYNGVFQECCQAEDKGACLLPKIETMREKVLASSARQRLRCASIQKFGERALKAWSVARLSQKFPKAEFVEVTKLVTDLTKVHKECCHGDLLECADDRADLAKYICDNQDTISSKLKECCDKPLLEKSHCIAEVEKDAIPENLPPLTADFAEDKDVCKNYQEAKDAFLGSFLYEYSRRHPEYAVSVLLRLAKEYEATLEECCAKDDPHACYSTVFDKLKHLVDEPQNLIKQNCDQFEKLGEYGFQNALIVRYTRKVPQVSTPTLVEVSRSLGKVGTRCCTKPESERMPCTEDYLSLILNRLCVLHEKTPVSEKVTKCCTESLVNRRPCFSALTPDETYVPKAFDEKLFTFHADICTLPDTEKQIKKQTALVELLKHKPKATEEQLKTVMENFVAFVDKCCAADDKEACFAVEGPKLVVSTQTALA

Cytochrome P450 3A4 = Cytochrome P450 3A4 (Homo sapiens, UniProt P08684); conditions: Potency;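 further: confirmatory qHTS run detecting inhibitors and substrates of CYP3A4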
Sequence of Cytochrome P450 3A4 (P08684 whole entry): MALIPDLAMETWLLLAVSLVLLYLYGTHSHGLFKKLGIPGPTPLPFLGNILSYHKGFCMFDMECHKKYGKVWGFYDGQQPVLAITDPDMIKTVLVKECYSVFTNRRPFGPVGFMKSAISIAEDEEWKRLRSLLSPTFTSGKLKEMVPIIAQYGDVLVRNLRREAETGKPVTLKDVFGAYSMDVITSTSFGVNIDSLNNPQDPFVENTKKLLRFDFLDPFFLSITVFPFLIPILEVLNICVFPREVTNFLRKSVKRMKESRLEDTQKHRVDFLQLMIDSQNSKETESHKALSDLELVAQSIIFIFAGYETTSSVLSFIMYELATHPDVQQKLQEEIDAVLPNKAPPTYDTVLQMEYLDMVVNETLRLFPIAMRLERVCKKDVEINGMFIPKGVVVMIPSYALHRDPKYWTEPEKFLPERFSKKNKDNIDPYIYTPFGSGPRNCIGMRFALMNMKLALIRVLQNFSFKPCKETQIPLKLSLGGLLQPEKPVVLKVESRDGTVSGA

Cytochrome P450 2C9 = Cytochrome P450 2C9 (Homo sapiens, UniProt P11712)
Sequence of Cytochrome P450 2C9 (P11712 whole entry): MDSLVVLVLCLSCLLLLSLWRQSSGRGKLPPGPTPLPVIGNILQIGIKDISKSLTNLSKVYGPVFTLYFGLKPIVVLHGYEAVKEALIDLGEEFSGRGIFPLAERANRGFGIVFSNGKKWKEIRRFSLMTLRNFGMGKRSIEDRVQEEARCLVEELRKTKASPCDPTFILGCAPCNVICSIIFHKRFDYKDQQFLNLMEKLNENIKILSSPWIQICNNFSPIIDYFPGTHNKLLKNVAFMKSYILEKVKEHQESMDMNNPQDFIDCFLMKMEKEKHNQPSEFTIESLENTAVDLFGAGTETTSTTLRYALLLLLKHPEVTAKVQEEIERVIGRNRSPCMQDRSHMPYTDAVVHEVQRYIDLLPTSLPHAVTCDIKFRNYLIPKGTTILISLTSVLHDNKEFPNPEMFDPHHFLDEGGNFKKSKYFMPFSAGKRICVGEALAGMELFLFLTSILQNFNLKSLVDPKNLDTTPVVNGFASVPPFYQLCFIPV

Leucine aminopeptidase = biological target: T4, Leucine aminopeptidase (Plasmodium falciparum 3D7, UniProt Q8IL11); assay: P. falciparum M17LAP inhibitors, primary screen, biochemical, fluorogenic H-Leu-NHMec substrate, 1536-well (AID 1619); format: functional
T4 sequence (Q8IL11 whole entry): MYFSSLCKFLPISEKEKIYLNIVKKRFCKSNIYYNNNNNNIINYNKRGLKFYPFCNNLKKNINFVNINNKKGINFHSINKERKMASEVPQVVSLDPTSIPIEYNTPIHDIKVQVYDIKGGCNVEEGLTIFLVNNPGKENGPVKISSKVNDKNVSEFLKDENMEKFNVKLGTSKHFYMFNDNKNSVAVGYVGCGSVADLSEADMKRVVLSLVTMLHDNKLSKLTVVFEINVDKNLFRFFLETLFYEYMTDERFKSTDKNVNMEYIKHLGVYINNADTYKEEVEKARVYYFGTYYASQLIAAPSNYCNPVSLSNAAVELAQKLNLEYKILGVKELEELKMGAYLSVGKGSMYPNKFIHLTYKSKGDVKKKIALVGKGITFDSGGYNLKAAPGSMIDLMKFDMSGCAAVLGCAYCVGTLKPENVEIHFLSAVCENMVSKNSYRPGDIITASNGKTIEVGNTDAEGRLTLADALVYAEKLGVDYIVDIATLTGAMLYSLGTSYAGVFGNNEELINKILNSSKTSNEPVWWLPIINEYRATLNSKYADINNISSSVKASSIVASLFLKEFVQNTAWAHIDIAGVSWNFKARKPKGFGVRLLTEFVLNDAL

[8] = biological target: DNA dC->dU-editing enzyme APOBEC-3G (Homo sapiens, UniProt Q9HC16); assay: Dose Response confirmation of small molecule APOBEC3G DNA Deaminase Inhibitors via a fluorescence-based single-stranded DNA deaminase assay. [Related pubchem assays (depositor defined):AID493012, AID493028]; format: functional
Sequence of DNA dC->dU-editing enzyme APOBEC-3G (Q9HC16 whole entry): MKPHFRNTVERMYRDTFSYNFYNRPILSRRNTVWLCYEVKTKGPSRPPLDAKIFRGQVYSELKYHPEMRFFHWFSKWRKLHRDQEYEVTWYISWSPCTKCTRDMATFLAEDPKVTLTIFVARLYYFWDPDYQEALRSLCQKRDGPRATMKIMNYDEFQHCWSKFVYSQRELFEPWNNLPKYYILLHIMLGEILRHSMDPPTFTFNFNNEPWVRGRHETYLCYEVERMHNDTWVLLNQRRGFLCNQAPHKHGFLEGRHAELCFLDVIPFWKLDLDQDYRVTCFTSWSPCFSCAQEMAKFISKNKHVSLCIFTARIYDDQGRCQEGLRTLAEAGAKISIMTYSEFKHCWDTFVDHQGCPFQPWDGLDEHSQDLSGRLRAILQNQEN

[9] = HIV-1 Vif–A3G interaction blockers – biochemical, TR-FRET, GST-Vif 1-94, biotin-A3G peptide, dose response retest, primary screen (AID 1117319); format: functional;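 further: TR-FRET signal of purified GST-Vif binding a biotinylated A3G peptide; inhibitors lower the FRET signal by blocking Vif and A3G binding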
[10] = viability loss of HPDE-C7K cells – cell-based, fluorescence, HTS, primary screen (AID 431); format: functional; conditions: Homo sapiens
[11] = HPDE-C7 pancreatic duct cell viability loss – fluorescence, HTS (AID 430); format: functional, cell-based; conditions: Homo sapiens

SMILES: CN1C(=O)C(CC(=O)Nc2ccc(F)cc2)N(Cc2cccs2)C1=S (centres undefined)
IC50 [1]: > 67.5 µM (inactive)
EC50 [2]: > 67.5 µM (inactive)

SMILES: CC(/C=N/NC(=O)Cn1cnc2ccccc21)=C\c1ccccc1
IC50 [1]: > 67.5 µM (inactive)
EC50 [3]: > 195 µM (not active)
EC50 [2]: > 67.5 µM (inactive)

IC50 (Aminopeptidase N): 22.8 µM (active)
SMILES: O=Cc1cn(CC(=O)N2CCCc3ccccc32)c2ccccc12

SMILES: Cc1cccc(OCCNC(=O)c2cncc(Br)c2)c1
IC50 [1]: > 67.5 µM (inactive)
EC50 [2]: > 67.5 µM (inactive)

SMILES: COC(=O)[C@@H](Cc1c[nH]c2ccccc12)NC(=O)c1ccc2c(c1)OCO2
IC50 [1]: > 67.6 µM (inactive)
EC50 [4]: > 260 µM (inactive)
EC50 [2]: > 67.6 µM (inactive)

SMILES: Cc1oc(-c2ccc(-c3ccccc3)cc2)nc1CN(CCO)C(C)C
EC50 [5]: > 67.5 µM (inactive)
EC50 (cells): > 67.5 µM (inactive)

EC50 [6]: 0.728 µM (active)
SMILES: CCCC(c1nnnn1Cc1ccco1)N1CCN(c2cc(Cl)ccc2C)CC1 (centres undefined)

SMILES: CN(C)c1ccc(-c2cc3ccccc3c(=O)o2)cc1
EC50 [5]: > 67.6 µM (inactive)
EC50 (cells): > 67.6 µM (inactive)

SMILES: O=C(CSc1nnc(-c2ccccc2O)n1Cc1ccccc1)NNC(=O)c1ccccc1O
AC50 [7]: 7.6 µM (active)
IC50 (Aminopeptidase N): 130 µM (active)
IC50 (Albumin): > 94.1 µM (inactive)

AC50 (Cytochrome P450 3A4): 25.1 µM (inconclusive)
SMILES: O=c1c(O)c(-c2ccccc2)oc2ccccc12 [FLAVONOL]

EC50 [6]: 1.96 µM (active)
AC50 (Cytochrome P450 2C9): inconclusive
SMILES: O=C(NCc1ccc2c(c1)OCO2)C1CC(c2cccc(Br)c2)=NO1 (centres undefined)

SMILES: Cc1c(C(c2ccccc2Cl)c2c(O)oc3ccccc3c2=O)c(=O)n(-c2ccccc2)n1C (centres undefined)
IC50 (Aminopeptidase N): 77.1 µM (active)

EC50 [6]: 3.79 µM (active)
SMILES: CN(C)S(=O)(=O)N(CC(=O)Nc1ccc2ccccc2c1)c1ccccc1

SMILES: Sc1nnc(-c2ccco2)[nH]1
IC50 (Leucine aminopeptidase): 11 µM (active)
IC50 [8]: 12 µM (active)

AC50 (Cytochrome P450 3A4): 12.6 µM (inconclusive)
SMILES: COc1cc2c(cc1OC)C(=O)OC2 [METAMECONINE]

IC50 [9]: > 100 µM (active)
EC50 [4]: > 260 µM (inactive)
SMILES: CCOc1ccc2[nH]c(SCc3ccc(C(=O)OC)o3)nc2c1

EC50 [6]: 331 µM (active)
SMILES: CCn1c(SCc2nc(-c3ccccc3)no2)nc2ccccc21

SMILES: CC1=C(/C=C/C(C)=C/C=C/C(C)=C/C(=O)O)C(C)(C)CCC1 [TRETINOIN]
AC50 (Cytochrome P450 3A4): 39.8 µM (inconclusive)
EC50 [10]: > 20 µM (not active)
EC50 [11]: > 20 µM (not active)

SMILES: CCCCN(C(=O)CSc1cc(C)c2ccc(OC)cc2n1)c1c(N)n(Cc2ccccc2)c(=O)[nH]c1=O
IC50 [1]: > 67.5 µM (inactive)
EC50 [2]: > 67.5 µM (inactive)

SMILES: CC(C)NC1=NN=C(c2cccs2)CS1
EC50 [5]: > 67.6 µM (inactive)
EC50 (cells): > 67.6 µM (inactive)

AC50 (Cytochrome P450 3A4): 3.98 µM (inconclusive)
SMILES: COC(=O)NC(/C=C/c1ccccc1)[C@]1(C(C)=O)CCCC1=O (some centres undefined)

SMILES: NNCc1ccccc1 [BENZYLHYDRAZINE HYDROCHLORIDE]
AC50 (Cytochrome P450 3A4): 7.94 µM (inconclusive)

SMILES: c1ccc(N2CC3COc4ccccc4C3=N2)cc1 (centres undefined)
EC50 [5]: > 67.4 µM (inactive)
EC50 (cells): > 67.4 µM (inactive)

IC50 [9]: > 100 µM (active)
SMILES: CN(C)NC1CCS(=O)(=O)C1 (centres undefined)

IC50 [9]: > 100 µM (active)
SMILES: COc1ccc2cc(C3(C)NC(=O)N(CC(=O)Nc4c(C)n(C)n(-c5ccccc5)c4=O)C3=O)ccc2c1 (centres undefined)

IC50 (Aminopeptidase N): 52.9 µM (active)
SMILES: COc1ccc(OC)c(C2C3=C(O)CCCC3=NC(C)=C2C(=O)Nc2cccnc2)c1 (centres undefined)
